The target in one experiment is Opioid receptor delta 1 (Bos taurus, UniProt F1N083).
A further experiment addresses Mu-type opioid receptor (Bos taurus, UniProt P79350).

Mu-type opioid receptor, sequence (P79350 whole entry): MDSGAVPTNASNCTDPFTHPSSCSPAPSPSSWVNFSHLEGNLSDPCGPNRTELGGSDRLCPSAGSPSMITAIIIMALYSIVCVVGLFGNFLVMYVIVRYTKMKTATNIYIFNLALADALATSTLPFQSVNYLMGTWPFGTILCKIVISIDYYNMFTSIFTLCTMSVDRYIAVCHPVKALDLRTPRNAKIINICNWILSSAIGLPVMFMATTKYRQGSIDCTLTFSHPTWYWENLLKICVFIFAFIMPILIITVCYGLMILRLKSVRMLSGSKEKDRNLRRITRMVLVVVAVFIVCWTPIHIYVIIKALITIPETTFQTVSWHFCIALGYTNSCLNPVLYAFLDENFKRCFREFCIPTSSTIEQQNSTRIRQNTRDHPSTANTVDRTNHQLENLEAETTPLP
Opioid receptor delta 1, sequence (F1N083 whole entry): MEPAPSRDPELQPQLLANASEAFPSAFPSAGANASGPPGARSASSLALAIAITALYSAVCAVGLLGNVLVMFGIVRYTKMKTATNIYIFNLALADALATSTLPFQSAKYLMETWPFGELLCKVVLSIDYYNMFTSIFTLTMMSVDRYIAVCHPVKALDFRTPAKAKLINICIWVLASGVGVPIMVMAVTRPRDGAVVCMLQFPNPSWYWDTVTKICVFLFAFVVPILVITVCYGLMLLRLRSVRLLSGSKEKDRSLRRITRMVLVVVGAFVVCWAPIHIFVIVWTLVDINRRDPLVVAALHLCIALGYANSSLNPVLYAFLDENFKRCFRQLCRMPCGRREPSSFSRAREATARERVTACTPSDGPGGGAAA

`COc1ccc2c3c1O[C@H]1C(=O)CCC4(NC(=O)/C=C\c5ccc([N+](=O)[O-])cc5)C(C2)N(CC2CC2)CCC314` (stereo partly specified) [N-CPM-CACO] registered an inhibition constant Ki at Opioid receptor delta 1 of 16 nM.
Regarding `COc1ccc2c3c1O[C@H]1C(=O)CCC4(NC(=O)/C=C\c5ccc(Cl)cc5)C(C2)N(CC2CC2)CCC314` (stereo partly specified) [MC-CAM], the inhibitory constant (Ki) amounted to 12 nM on Opioid receptor delta 1 and 1.4 nM at Mu-type opioid receptor.
The molecule `COc1ccc2c3c1O[C@H]1C(=O)CCC4(NC(=O)/C=C\c5ccc([N+](=O)[O-])cc5)C(C2)N(C)CCC314` (stereo partly specified) [CACO] gave a Ki on Mu-type opioid receptor of 0.46 nM.
In the case of `COc1ccc2c3c1O[C@H]1C(=O)CCC4(NC(=O)/C=C\c5ccc(Cl)cc5)C(C2)N(C)CCC314` (stereo partly specified) [CAM], the values for the Ki on Opioid receptor delta 1 and on Mu-type opioid receptor were 0.75 nM and 0.12 nM, respectively.

The values are drawn from BindingDB's records for PubMed 10087018 (University of Rochester, 1999).
